Drawing on ChEMBL document CHEMBL1201862, “PubChem BioAssay data set” (2004), this text covers IC50, CC50 and EC50 for 12 molecules.

Calls of active or inactive are those of the source.

The target of one assay is Prothrombin (Homo sapiens, UniProt P00734). Put plainly: Thrombin 1536 HTS Dose Response Confirmation. [Related pubchem assays: 1046 (Thrombin 1536 HTS; hits were confirmed in this assay)]. The assay is classed as functional.
The nature of assay [1]: THP-1 cell cytotoxicity, dose response, cytotoxicity control for non-replicating M. tuberculosis project (AID 489025). The assay is classed as functional.
Assay [2] can be described thus: P. falciparum late gametocyte killing, dose response, luminescence (AID 1117278).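 Further: gametocytes exposed to compound for 24 hours.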 The assay is classed as functional, cell-based.
Assay [3] is described as follows: Jurkat T cell cytotoxicity, dose response, cytotoxicity control for P. falciparum gametocyte viability project, luminescence (AID 1117277).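 Further: potency reflects loss of cellular ATP meaning fewer viable cells.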 The format is functional, cell-based.
The target in the next assay is T1, Aminopeptidase N (Plasmodium falciparum FcB1/Columbia, UniProt O96935).
T1 sequence (O96935 whole entry): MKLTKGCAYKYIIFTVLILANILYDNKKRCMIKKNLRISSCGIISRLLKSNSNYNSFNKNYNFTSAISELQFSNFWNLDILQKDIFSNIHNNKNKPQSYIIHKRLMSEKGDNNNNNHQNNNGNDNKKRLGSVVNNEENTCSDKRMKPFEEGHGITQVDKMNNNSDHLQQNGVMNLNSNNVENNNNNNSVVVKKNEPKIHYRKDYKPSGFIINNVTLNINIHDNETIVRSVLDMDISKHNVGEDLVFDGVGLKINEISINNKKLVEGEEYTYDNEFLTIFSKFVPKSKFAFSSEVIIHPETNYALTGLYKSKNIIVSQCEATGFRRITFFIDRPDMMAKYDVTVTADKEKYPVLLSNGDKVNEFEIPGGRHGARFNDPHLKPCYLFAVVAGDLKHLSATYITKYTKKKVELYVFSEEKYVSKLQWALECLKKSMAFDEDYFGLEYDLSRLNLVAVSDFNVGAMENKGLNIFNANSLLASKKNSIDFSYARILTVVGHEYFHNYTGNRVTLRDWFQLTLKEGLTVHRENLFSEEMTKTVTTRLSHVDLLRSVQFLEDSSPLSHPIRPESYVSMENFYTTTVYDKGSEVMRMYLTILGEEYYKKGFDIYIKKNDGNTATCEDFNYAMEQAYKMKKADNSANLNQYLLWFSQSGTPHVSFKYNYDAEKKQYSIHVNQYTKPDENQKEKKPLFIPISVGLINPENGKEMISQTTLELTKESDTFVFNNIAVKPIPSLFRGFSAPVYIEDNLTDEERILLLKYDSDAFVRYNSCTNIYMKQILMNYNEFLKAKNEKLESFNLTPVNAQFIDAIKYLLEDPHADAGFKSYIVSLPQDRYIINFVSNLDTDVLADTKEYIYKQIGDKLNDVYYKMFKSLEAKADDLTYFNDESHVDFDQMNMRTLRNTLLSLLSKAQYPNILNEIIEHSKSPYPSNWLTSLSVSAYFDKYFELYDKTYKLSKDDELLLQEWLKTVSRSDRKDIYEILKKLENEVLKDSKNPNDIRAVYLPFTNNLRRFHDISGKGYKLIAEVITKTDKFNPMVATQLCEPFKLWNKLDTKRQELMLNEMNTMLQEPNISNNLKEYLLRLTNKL
The assay is described as follows: P. falciparum M1AAP inhibitors, biochemical, fluorogenic H-Leu-NHMec substrate, 1536-well (AID 1445). On the set-up: species or system Plasmodium falciparum 3D7, 3D7.

The next assay concerns the target T2, Bcl-2-like protein 10 (Homo sapiens, UniProt Q9HD36).
T2 sequence (Q9HD36 whole entry): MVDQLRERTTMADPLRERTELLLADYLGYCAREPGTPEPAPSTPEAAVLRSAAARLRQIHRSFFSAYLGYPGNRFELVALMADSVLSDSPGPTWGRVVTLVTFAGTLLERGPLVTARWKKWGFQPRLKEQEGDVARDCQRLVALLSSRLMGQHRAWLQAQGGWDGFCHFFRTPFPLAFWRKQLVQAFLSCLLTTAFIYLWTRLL
Put plainly: displacers of TR3 peptide from Bcl-B, primary screen, selectivity assay for Bfl-1 inhibitor project, biochemical, fluorescence polarization, FITC-TR3 peptide (AID 748).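 Further: fluorescence polarization from a fluorescein-labelled TR3 peptide binding purified Bcl-B.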

The target in assay [4] is Mitogen-activated protein kinase 10 (Homo sapiens, UniProt P53779). Put plainly: Dose response biochemical screening assay for inhibitors of c-Jun N-Terminal Kinase 3 (JNK3). [Related pubchem assays: 746 ].
For assay [5], the target named is T3, Short transient receptor potential channel 4 (Mus musculus, UniProt Q9QUQ5).
T3 sequence (Q9QUQ5 whole entry): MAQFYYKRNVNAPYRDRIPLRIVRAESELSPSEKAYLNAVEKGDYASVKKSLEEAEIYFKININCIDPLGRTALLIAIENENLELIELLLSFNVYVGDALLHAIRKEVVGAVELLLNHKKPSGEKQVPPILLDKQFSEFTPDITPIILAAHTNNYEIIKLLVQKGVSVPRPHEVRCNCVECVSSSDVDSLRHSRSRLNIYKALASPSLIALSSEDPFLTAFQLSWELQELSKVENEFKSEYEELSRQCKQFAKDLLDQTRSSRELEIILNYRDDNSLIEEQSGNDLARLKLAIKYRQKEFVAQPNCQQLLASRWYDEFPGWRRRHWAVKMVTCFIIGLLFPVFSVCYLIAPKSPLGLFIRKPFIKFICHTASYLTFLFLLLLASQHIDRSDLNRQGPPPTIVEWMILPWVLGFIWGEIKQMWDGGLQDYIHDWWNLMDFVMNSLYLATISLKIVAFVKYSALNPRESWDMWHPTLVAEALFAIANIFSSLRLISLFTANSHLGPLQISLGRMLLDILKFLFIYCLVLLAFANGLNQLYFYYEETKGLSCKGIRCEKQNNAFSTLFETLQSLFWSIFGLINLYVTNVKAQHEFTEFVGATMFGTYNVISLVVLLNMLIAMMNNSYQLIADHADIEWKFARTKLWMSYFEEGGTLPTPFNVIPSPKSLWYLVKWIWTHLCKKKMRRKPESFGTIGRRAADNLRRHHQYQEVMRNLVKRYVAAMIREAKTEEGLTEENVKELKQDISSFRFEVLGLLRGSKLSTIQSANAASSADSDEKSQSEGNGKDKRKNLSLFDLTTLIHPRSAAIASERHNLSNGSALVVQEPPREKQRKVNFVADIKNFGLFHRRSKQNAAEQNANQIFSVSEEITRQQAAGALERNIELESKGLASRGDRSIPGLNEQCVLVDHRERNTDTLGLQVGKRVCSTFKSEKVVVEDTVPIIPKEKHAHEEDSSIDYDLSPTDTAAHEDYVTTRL
Put plainly: mouse TRPC4 channel activators, dose response, cell-based, HEK293 TRPC4/mu-opioid, Fluo-4 calcium (AID 434937). The assay is classed as functional.

The target in assay [6] is T4, Luciferin 4-monooxygenase (Photinus pyralis, UniProt P08659). Put plainly: Counter Screen for Luciferase-based Assay Positives. [Related pubchem assays: 620, 618, 411 ].
Assay [7] in a line: Luminescence Cell-Based Dose Response HTS to Identify Inhibitors of 5'UTR Stem-Loop Driven Prion Protein mRNA Translation in H4 Neuroglioblastoma Cells. [Related pubchem assays: 1827 (Project Summary), 1813 (Primary HTS)]. The format is functional.
In assay [8] the target is T5, Heat shock factor protein 1 (Mus musculus, UniProt P38532).
T5 sequence (P38532 whole entry): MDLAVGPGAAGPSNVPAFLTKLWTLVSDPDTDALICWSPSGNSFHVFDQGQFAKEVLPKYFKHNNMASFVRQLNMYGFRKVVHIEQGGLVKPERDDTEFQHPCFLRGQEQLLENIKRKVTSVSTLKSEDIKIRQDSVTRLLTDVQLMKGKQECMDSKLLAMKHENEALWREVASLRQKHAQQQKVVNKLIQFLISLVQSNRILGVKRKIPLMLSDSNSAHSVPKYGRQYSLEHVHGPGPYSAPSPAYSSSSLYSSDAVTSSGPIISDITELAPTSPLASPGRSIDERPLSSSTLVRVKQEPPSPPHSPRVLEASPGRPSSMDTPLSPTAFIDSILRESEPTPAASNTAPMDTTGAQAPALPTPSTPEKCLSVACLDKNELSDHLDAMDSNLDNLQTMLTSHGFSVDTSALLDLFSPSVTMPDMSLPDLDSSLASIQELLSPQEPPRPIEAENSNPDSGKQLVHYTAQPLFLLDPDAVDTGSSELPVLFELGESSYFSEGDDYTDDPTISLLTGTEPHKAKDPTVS
Put plainly: inhibition of MG132-induced HSE-luciferase signal, confirmation, cell-based, NIH3T3, luminescence, dose retest (AID 2382).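 Further: NIH3T3 fibroblasts with HSF1-driven luciferase reporter stressed by proteasome inhibitor MG132; luminescence from HSF1-driven luciferase expression after 8 hours of MG132 stress.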 The assay is classed as functional.

A short description of assay [9]: inhibitors of SNCA 5'UTR-driven reporter translation, confirmation, H4 neuroglioma cells, luminescence (AID 1988). The format is functional, cell-based.
Assay [10] has as its target T4, Luciferin 4-monooxygenase. The assay is described as follows: firefly luciferase enzyme inhibitors, dose response, biochemical, luminescence (AID 1891).
The nature of assay [11]: Luminescence Cell-Based Dose Confirmation HTS to Identify Inhibitors of Platelet Dense Granule Release. [Related pubchem assays: 1663 (Primary HTS), 1678 (Summary of Project)]. The assay is classed as functional.
A further assay deals with HT-1080. The assay is described as follows: cytotoxicity in HT1080 fibrosarcoma cells, cell-based, fluorescence readout (AID 620). The assay is classed as functional. The settings on record: Homo sapiens.
The target in assay [12] is T6, Mannose-6-phosphate isomerase (Homo sapiens, UniProt P34949).
T6 sequence (P34949 whole entry): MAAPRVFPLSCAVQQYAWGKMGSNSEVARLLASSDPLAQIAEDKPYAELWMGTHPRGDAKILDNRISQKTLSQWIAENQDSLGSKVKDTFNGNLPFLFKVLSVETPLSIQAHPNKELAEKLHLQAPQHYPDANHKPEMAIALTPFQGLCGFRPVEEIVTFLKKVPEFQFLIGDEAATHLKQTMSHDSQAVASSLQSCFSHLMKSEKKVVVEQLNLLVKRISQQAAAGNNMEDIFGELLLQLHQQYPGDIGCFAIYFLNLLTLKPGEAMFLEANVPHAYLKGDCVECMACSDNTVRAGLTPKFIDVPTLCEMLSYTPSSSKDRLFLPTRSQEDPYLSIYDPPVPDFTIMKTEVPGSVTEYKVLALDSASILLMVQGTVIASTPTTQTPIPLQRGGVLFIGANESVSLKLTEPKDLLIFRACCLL
The assay is described as follows: human PMI inhibitors, high substrate, primary screen, biochemical, fluorescence intensity, high mannose 6-phosphate (AID 1220).

The next assay can be described thus: cells. The format is functional.
The next assay deals with T7, Estrogen receptor (Homo sapiens, UniProt P03372).
T7 sequence (P03372 whole entry): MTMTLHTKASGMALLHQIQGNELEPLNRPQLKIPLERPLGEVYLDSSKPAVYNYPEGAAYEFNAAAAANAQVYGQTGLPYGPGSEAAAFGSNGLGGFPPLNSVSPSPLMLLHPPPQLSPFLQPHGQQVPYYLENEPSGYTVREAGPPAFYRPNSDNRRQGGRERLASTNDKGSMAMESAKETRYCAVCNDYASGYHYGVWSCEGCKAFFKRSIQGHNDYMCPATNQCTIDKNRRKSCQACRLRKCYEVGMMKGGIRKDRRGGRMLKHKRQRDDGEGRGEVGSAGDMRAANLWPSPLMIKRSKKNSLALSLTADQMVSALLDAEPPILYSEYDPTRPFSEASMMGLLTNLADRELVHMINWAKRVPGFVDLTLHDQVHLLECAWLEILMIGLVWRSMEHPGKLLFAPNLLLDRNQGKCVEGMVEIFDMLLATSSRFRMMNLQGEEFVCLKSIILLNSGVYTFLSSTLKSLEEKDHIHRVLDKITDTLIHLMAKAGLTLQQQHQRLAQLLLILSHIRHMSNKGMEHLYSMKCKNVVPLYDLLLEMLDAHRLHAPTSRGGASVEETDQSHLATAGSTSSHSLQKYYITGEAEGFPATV

T4 sequence (P08659 whole entry): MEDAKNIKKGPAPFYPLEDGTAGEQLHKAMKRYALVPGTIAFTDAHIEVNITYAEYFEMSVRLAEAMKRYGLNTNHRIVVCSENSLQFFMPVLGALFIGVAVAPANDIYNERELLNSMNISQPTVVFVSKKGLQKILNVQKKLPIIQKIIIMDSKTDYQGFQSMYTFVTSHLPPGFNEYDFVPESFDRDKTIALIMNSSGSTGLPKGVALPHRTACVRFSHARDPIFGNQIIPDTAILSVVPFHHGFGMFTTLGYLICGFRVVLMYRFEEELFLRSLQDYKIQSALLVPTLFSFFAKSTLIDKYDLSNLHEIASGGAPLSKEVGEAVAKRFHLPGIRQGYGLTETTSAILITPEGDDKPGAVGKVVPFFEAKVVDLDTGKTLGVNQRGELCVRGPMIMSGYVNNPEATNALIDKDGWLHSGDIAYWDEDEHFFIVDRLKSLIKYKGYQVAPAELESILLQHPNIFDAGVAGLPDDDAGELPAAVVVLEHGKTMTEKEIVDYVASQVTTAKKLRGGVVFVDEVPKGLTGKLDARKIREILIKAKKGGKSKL
Chain of Mitogen-activated protein kinase 10 (P53779 whole entry): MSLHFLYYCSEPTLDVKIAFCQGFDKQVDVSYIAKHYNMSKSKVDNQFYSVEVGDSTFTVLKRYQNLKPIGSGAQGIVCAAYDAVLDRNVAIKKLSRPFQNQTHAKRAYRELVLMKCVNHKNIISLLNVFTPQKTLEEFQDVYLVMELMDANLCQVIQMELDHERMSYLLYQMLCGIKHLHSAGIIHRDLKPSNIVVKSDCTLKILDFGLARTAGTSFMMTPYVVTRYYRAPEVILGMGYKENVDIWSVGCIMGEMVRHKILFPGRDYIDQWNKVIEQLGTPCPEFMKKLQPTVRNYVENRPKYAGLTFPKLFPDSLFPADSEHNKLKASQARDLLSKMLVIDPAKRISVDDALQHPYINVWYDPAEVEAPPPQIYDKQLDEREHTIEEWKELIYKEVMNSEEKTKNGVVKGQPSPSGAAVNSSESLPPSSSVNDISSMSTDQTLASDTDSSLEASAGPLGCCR

In the case of `COC(=O)CN1C(=O)C(O)(CC(=O)c2ccc(Cl)cc2)c2ccccc21` (stereo not given), the half-maximal inhibitory concentration (IC50) against Prothrombin is > 50 µM (not active).

`O=C(Cc1c(F)cccc1Cl)Nc1ncc([N+](=O)[O-])s1`: the 50% cytotoxic concentration (CC50) in assay [1] is > 40 µM (active). Further, the IC50 in [2] is > 109 µM (inactive); in [3] it was > 83.3 µM (inactive).

For `CC(NC(=O)CN(C)S(=O)(=O)c1c[nH]cn1)c1ccccc1` (stereo not given), the IC50 at Aminopeptidase N was 54.6 µM (active).

With `Cc1ccc(NC(=O)c2ccc3ccccc3n2)cc1S(=O)(=O)N1CCOCC1`, the IC50 on Prothrombin was 40.9 µM (active).

Take `O=C(COC(=O)c1ccc(S(=O)(=O)NCc2ccco2)cc1)NCC1CCCCC1`: the IC50 on Bcl-2-like protein 10 is > 100 µM (inactive).

As for `c1ccc(-c2n[nH]c3c2CCC3)cc1`, the IC50 in assay [4] was 50.9 µM (not active).

Consider `O=C(O)c1ccc(-c2ccc(/C=N/Nc3ccc([N+](=O)[O-])cc3)o2)cc1`, for which the half-inhibitory concentration (IC50) at Aminopeptidase N was 43.1 µM (active). In addition, the concentration giving a half-maximal response (EC50) in assay [5] was 2.11 µM (active).

On to `COc1ccc(/N=C/C2=C(O)c3ccccc3C2=O)c(OC)c1`, for which the 50% effective concentration (EC50) was 50.2 µM (active) in [6]; 11.7 µM (active) in [7]; 2.42 µM (active) in assay [8]; 8.03 µM (active) in assay [9]; 1.21 µM (active) in assay [10]; 3.47 µM (active) in assay [11]. Besides, the EC50 in the assay on HT-1080 is given as > 50 µM (not active).

As to `Cc1cccc(-n2ncc3c(N4CCCC4)ncnc32)c1`, the 50% effective concentration (EC50) in assay [6] is 1.02 µM (active); with HT-1080, > 50 µM (not active).

Take `O=C(CCN1CCOCC1)c1ccc(Br)cc1`: the IC50 was 43 µM (active) in [12] and 11.8 µM (active) in the assay “cells”. Also, the half-maximal cytotoxic concentration (CC50) in assay [1] was > 40 µM (active).

Take `Cc1nc2cccc(C(=O)NCc3ccccc3)c2o1`: the values for the half-maximal inhibitory concentration (IC50) (on Estrogen receptor; in [4]) were 48.4 µM (not active) and 45.5 µM (not active), respectively.

As for `O=C(CNC(=O)c1ccncc1)N/N=C/c1cc(Br)ccc1O`, at Aminopeptidase N, the IC50 was 24.5 µM (active).
